Literature values in patent publication US8470863B2, “Derivatives and analogs of chroman as functionally selective ALPHA2C adrenoreceptor agonists” (Merck Sharp & Dohme, Corp., priority 2007, dated 2013).

System: Coloboma mice
Settings: mice mutated to exhibit spontaneous hyperactivity; Bruno et al. 2006

## COC(=O)[C@@H]1[C@H]2C[C@H]3c4[nH]c5ccccc5c4CCN3C[C@@H]2CC[C@@H]1O [yohimbine]
  Effect on hyperactivity of Coloboma mice: ameliorated hyperactivity
